Each structure is given as a SMILES string. Like-named read-outs stand apart in the source and are kept apart here.

For one assay, the system named is IRF3. Briefly: STING THP1 Reporter Assay, IRF pathway (secreted Lucia luciferase). As to conditions: THP1-Dual cells, 10% human plasma, luciferase readout, 100% activation = 100 μM cGAMP, read-out: THP1 Reporter Assays EC50 (μM) IRF3. The format is cell-based. The text has this: (§1) THP1-Dual™ cells were derived from the human THP-1 monocyte cell line by stable integration of two inducible reporter constructs. To this end, THP1-Dual™ cells allow the simultaneous study of the NF-κB pathway, by monitoring the activity of SEAP, and the IRF pathway by assessing the activity of a secreted luciferase (Lucia). Both reporter proteins are readily measurable in the cell culture supernatant when using QUANTI-Blue™, a SEAP detection reagent, and QUANTI-Luc™, a luciferase detection reagent.
(§2) THP 1-Dual™ cells induce the activation of NF-κB in response to STING agonists. They also trigger the IRF pathway upon stimulation with STING agonists, such as cGAMP. Here, the THP-1-Dual cells were used to assess STING binders for function on the cellular level.
(§3) Serial dilutions of compounds in DMSO were added to low volume 384 well plates at 100 nl/well using an ECHO acoustic dispenser (Labcyte, model 550) to achieve final starting concentration of 100 μM in cell suspension. THP-1 Dual™ STING reporter cells (Invivogen, Dual cells cat #THPD-nfis) were added to the plates with compounds at 15,000 cells in 10 μL per well in RPMI media (Gibco, cat #11875) containing 10% human plasma in a low volume 384-well black wall clear bottom tissue culture plate (Corning, cat #3542) for SEAP assay and low volume solid white plate (Corning, cat #3826) for luciferase assay. One column of the plate was reserved for treatment with cGAMP at 100 μM for 100% activation calculation and one column for no treatment (DMSO only) for baseline activation. Plates were then incubated in 37° C. incubator at 5% CO2 for 20 hours.
(§4) In the SEAP assay, […] 2× QuantiBlue (Invivogen, cat #Rep-qb2) is added to 384 well black plates seeded with THP1 cells and incubated at 37° C. for 2 hours. Plates were read on the Envision (Perkin Elmer) at 620 nm wavelength (OD620). In the luciferase assay, 5 μl of Quantiluc (Invivogen, Rep-qlc2) is added to white 384 well plates seeded with THP1 cells and read at 5 minutes on the Envision (Perkin Elmer) using a luminescence protocol (RLU). For both cell lines, 100% activation was determined by value (RLU) of THP-1 Dual STING cells stimulated with 100 μM cGAMP (Invivogen, cat #TLRL-NACGA23-5).

For another assay, the system named is NFkB. The experiment in a line: STING THP1 Reporter Assay, NF-κB pathway (SEAP). The format is cell-based. As to conditions: THP1-Dual cells, 10% human plasma, SEAP readout (OD620), 100% activation = 100 μM cGAMP, read-out: THP1 Reporter Assays EC50 (μM) NFkB.
Source text: as §1, §2, §3, §4

For assay [1], the target named is T1, STING WT: His-TVMV-S-hSTING(155-341)-H232R (Homo sapiens, UniProt Q86WV6, H232R).
T1 construct: STING WT: His-TVMV-S-hSTING(155-341)-H232R
T1 sequence (Q86WV6 with tags, fused parts or gaps H232R): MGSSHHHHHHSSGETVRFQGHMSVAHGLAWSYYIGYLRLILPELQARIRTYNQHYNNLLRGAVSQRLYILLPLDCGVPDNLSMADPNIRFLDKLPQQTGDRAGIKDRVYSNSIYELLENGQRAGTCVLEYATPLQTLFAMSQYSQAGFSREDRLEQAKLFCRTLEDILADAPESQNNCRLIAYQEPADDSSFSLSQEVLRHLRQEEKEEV
Briefly: STING HTRF Binding Assay (time resolved FRET competition), STING WT. As to conditions: 20 nM His-tagged STING cytoplasmic domain WT, 200 nM fluorescein-labeled cGAMP analog probe, one hour; read-out: HTRF Binding Assays EC50 (μM) STING WT. As to the method: (§5) A time resolved FRET-based competition binding assay was used to assess test article binding to STING WT and STING AQ. His-tagged STING cytoplasmic domain (WT or AQ) at a concentration of 20 nM was incubated with 2.5 nM Tb-labeled anti-His antibody, test compound, and fluorescein-labeled cGAMP analog probe (BioLog cat. no. C195) at a concentration of 200 nM (STING WT) or 40 nM (STING AQ) in PBS containing 0.005% Tween-20 and 0.1% BSA for one hour. Fluorescence at 495 nm and 520 nm was measured using an EnVision microplate reader to quantify FRET between Tb-labeled anti-His antibody and fluorescein-labeled probe. Background was defined as the signal obtained in the absence of STING protein, and background subtracted FRET ratios were normalized to the maximum signal obtained in the absence of test compound. These values were converted to a percent inhibition. Percent inhibition was determined for test compounds at 11 concentrations. The IC50, defined as the concentration of competing test compound needed to reduce specific binding of the probe by 50%, was calculated using the 4 parameter logistic equation to fit the data

Assay [2] concerns the target T2, STING AQ: His-TVMV-S-hSTING(155-341)-G230A-R293Q (Homo sapiens, UniProt Q86WV6, G230A/H232R/R293Q).
T2 construct: STING AQ: His-TVMV-S-hSTING(155-341)-G230A-R293Q
The experiment in a line: STING HTRF Binding Assay (time resolved FRET competition), STING AQ. As to conditions: 20 nM His-tagged STING cytoplasmic domain AQ, 40 nM fluorescein-labeled cGAMP analog probe, one hour; read-out: HTRF Binding Assays EC50 (μM) STING AQ. The procedure: as §5

T2 sequence (Q86WV6 with tags, fused parts or gaps G230A/H232R/R293Q): as the sequence (Q86WV6 with tags, fused parts or gaps H232R) above, with G99A, R162Q counted along it

For the compound `Nc1ncnc2c1ncn2[C@@H]1O[C@@H]2COP(=O)(O)O[C@@H]3[C@H](O)[C@@H](COP(=O)(O)O[C@H]2[C@H]1F)O[C@H]3n1cnc2c(=O)[nH]c3nccn3c21` [Example 2, (1R,6R,8R,9R,10R,15R,17R,18R)-8-(6-amino-9H-purin-9-yl)-9-fluoro-3,12,18-trihydroxy-17-{4-oxo-1H,4H,5H-imidazo[2,1-b]purin-1-yl}-2,4,7,11,13,16-hexaoxa-3λ^5,12λ^5-diphosphatricyclo[13.2.1.0^6,10]octadecane-3,12-dione], the EC50 in the assay on IRF3 (Homo sapiens, THP-1, 20 h) was determined as 23 µM; in the assay with NFkB (Homo sapiens, THP-1, 20 h), 59 µM; in assay [1], 0.03 µM; in assay [2], 0.002 µM.

`Nc1ncnc2c1ncn2[C@@H]1O[C@@H]2COP(=O)(O)O[C@@H]3[C@H](O)[C@@H](COP(=O)(O)O[C@H]2[C@H]1N)O[C@H]3n1cnc2c(=O)[nH]c3nccn3c21` [Example 3, (1R,6R,8R,9R,10S,15R,17R,18R)-9-amino-8-(6-amino-9H-purin-9-yl)-3,12,18-trihydroxy-17-{4-oxo-1H,4H,5H-imidazo[2,1-b]purin-1-yl}-2,4,7,11,13,16-hexaoxa-3λ^5,12λ^5-diphosphatricyclo[13.2.1.0^6,10]octadecane-3,12-dione]: the 50% effective concentration (EC50) was above 100 µM in the assay on IRF3 (Homo sapiens, THP-1, 20 h); above 100 µM with NFkB (Homo sapiens, THP-1, 20 h); 1.6 µM in assay [1]; 0.3 µM in assay [2].

As to `Nc1ncnc2c1ncn2[C@@H]1O[C@@H]2COP(=O)(S)O[C@@H]3[C@H](O)[C@@H](COP(=O)(S)O[C@H]2[C@H]1F)O[C@H]3n1cnc2c(=O)[nH]c3nccn3c21` (single isomer, unassigned) [Example 1-3], the EC50 in the assay on IRF3 (20 hours) came to 12 µM; in the assay with NFkB (20 hours), 27 µM; in assay [1], 0.03 µM; in assay [2], 0.006 µM.

Take `Nc1ncnc2c1ncn2[C@@H]1O[C@@H]2COP(=O)(S)O[C@@H]3[C@H](O)[C@@H](COP(=O)(S)O[C@H]2[C@H]1F)O[C@H]3n1cnc2c(=O)[nH]c3nccn3c21` (single isomer, unassigned) [Example 1-1]: the EC50 in the assay on IRF3 (20 hours) was above 100 µM; with NFkB (20 hours) it was above 100 µM; in assay [1], 0.19 µM; in assay [2], 0.07 µM.

For `Nc1ncnc2c1ncn2[C@@H]1O[C@@H]2COP(=O)(S)O[C@@H]3[C@H](O)[C@@H](COP(=O)(S)O[C@H]2[C@H]1F)O[C@H]3n1cnc2c(=O)[nH]c3nccn3c21` (single isomer, unassigned) [Example 1-4], the concentration giving a half-maximal response (EC50) with IRF3 (20 hours) was 1 µM; in the assay with NFkB (20 hours) it was 3 µM; in assay [1], 0.003 µM; in assay [2], below 0.001 µM.

Take `Nc1ncnc2c1ncn2[C@@H]1O[C@@H]2COP(=O)(S)O[C@@H]3[C@H](O)[C@@H](COP(=O)(S)O[C@H]2[C@H]1F)O[C@H]3n1cnc2c(=O)[nH]c3nccn3c21` (single isomer, unassigned) [Example 1-2]: the EC50 was determined as 10 µM in the assay on IRF3 (20 hours), 21 µM in the assay with NFkB (20 hours), 0.02 µM in assay [1] and 0.004 µM in assay [2].

Values taken from patent US10953032B2, “Cyclic dinucleotides as anticancer agents” (BRISTOL-MYERS SQUIBB COMPANY, priority 2017, dated 2021).
